Laboratory results published in patent US7398119B2, “Assessing blood brain barrier dynamics or identifying or measuring selected substances, including ethanol or toxins, in a subject by analyzing Raman spectrum signals” (Childrens Hospital Los Angeles, priority 1998, dated 2008).

Columns and labels:
[1] = Correlation of aqueous humor glucose with rising blood glucose after ketamine/xylazine anesthesia; type: in vivo, New Zealand white rabbits; conditions: xylazine 7.5 mg/kg with ketamine 50 mg/kg, single intramuscular injection
Experimental: Nine female New Zealand white rabbits were used for this part of the study. They were anesthetized with ketamine (50 mg/kg) and xylazine (7.5 mg/kg) given as a single intramuscular injection. Xylazine blocks release of insulin from the pancreas and causes blood glucose to rise (K. Chalabi et al., Ophthalmic Res. 19, 289 (1987); J. Arnbjerg et al., Ophthalmic Res. 22, 265 (1990)).
Blood samples were taken from the central ear arteries at various times following the injection of anesthetic once the animals were adequately anesthetized. Whole blood was immediately measured for glucose concentration with a commercial glucometer (Glucometer Elite, Bayer). In most instances two measurements were made. The average measurements are reported. If the measurements differed by more than 20%, a third measurement was made. […]
At various times after induction of anesthesia, samples of aqueous humor were taken. […] Aqueous humor glucose concentration was measured with the glucometer in a manner similar to the blood. […]
Average blood glucose concentrations for each animal were plotted against time after anesthetic injection. Since it was not possible to obtain blood samples simultaneous with aqueous humor samples, a best-fit second-order polynomial was calculated for each animal. […] Aqueous humor glucose concentration was then plotted against the calculated simultaneous blood glucose concentration for all animals. […]

[2] = blood alcohol and brain alcohol levels; cited from earlier work

SMILES	effect on blood glucose over time [1]	concentrations that may be lethal [2]
Cc1cccc(C)c1N=C1NCCCS1 [xylazine]	steadily rises at variable rates	–
CCO [alcohol, ethanol]	–	above 1%
